What all share (format): in vitro ADME
Data set [1] in a line: In vitro plasma stability, human plasma. The note with it: male, pH 7.4, 5 μM, 37° C., sampling 0-360 minutes, read-out: T1/2 Human. Here is the method:
Certain compounds from Table 1 were tested for their stability in plasma. The assay system comprised plasma from rat, dog or human (at least 3 donors, male, pooled) at pH 7.4, and (ii) an anticoagulant (sodium heparin or sodium citrate). Each test compound (5 μM) was incubated in plasma at 37° C. on a THERMOMIXER® with shaking. Three samples (n=3) were taken at each of seven sampling time points: 0, 10, 30, 60, 90, 180 and 360 minutes. The samples were immediately combined with 3 volumes (i.e., 3 times the volume of plasma) of acetonitrile containing 1% formic acid and an internal standard to terminate the reaction. AB SCIEX API 3000 LC-MS/MS analysis of the test compounds was performed without a standard curve. Plasma half-lives (T1/2) of the test compounds were determined from graphs of the percent remaining values using the peak area response ratio.

A short description of data set [2]: In vitro plasma stability, dog plasma. The note with it: male, pH 7.4, 5 μM, 37° C., sampling 0-360 minutes, read-out: T1/2 Dog. A digest of the protocol:
(§1)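 Pooled plasma at pH 7.4 with sodium heparin or citrate anticoagulant; compound at 5 μM, 37° C with shaking, triplicate samples at 0–360 min. Quenched in acetonitrile/1% formic acid with internal standard; LC-MS/MS peak-area ratios without standard curve; T1/2 from percent remaining.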

A short description of data set [3]: In vitro plasma stability, rat plasma. As to conditions: male, pH 7.4, 5 μM, 37° C., sampling 0-360 minutes, read-out: T1/2 Rat. A digest of the protocol: as §1

For `CN1N=C(c2ccc(S(=O)(=O)c3ccccc3)cc2)C(C)(NO)C1=O` (stereo not drawn) [Compound 89, 3-[4-(Benzenesulfonyl)phenyl]-4-(hydroxyamino)-1,4-dimethyl-4,5-dihydro-1H-pyrazol-5-one], the figures for the half-life at 5 μM in data set [1], in data set [2] and in data set [3] were 57 min, 29 min and 36 min, respectively.

Consider `COCCN(C)S(=O)(=O)c1ccc(C2=NN(C)C(=O)C2(C)NO)cc1` (stereo not drawn) [Compound 90, 4-[4-(Hydroxyamino)-1,4-dimethyl-5-oxo-4,5-dihydro-1H-pyrazol-3-yl]-N-(2-methoxyethyl)-N-methylbenzene-1-sulfonamide], for which the half-life at 5 μM in data set [1] came out at 49 min; in data set [2], 37 min; in data set [3], 72 min.

Regarding `CN1N=C(c2ccc(C(N)=O)cc2)C(C)(NO)C1=O` (stereo not drawn) [Compound 92, 4-[4-(Hydroxyamino)-1,4-dimethyl-5-oxo-4,5-dihydro-1H-pyrazol-3-yl]benzamide], the half-life at 5 μM in data set [1] is 169 min; in data set [2], 166 min; in data set [3] it was 270 min.

`CN1N=C(c2ccc(S(C)(=O)=O)c(N3CCNCC3)c2)C(C)(NO)C1=O` (stereo not drawn) [Compound 93, 4-(Hydroxyamino)-3-[4-methanesulfonyl-3-(piperazin-1-yl)phenyl]-1,4-dimethyl-4,5-dihydro-1H-pyrazol-5-one]: the half-life at 5 μM in data set [1] worked out at 35 min; in data set [2], 32 min; in data set [3] it was 66 min.

Regarding `C[C@H](NC(=O)c1ccc(C2=NN(C)C(=O)C2(C)NO)cc1)C(=O)O` (stereo partly drawn) [Compound 94], the results for the half-life at 5 μM in data set [1], in data set [2] and in data set [3] were 103 min, 114 min and 191 min, respectively.

As to `CN1N=C(c2ccc(S(C)(=O)=O)c(C(F)(F)F)c2)C(C)(NO)C1=O` (stereo not drawn) [Compound 97, 4-(Hydroxyamino)-3-[4-methanesulfonyl-3-(trifluoromethyl)phenyl]-1,4-dimethyl-4,5-dihydro-1H-pyrazol-5-one], the values for the half-life at 5 μM in data set [1], in data set [2] and in data set [3] were 25 min, 32 min and 23 min, respectively.

On to `CC1=NN(C)C(=O)C1(NO)c1cccc(C)c1` (stereo not drawn) [Compound 98, 4-(Hydroxyamino)-1,3-dimethyl-4-(3-methylphenyl)-4,5-dihydro-1H-pyrazol-5-one], for which the half-life at 5 μM is 12 min in data set [1], 16 min in data set [2] and 11 min in data set [3].

With `CN1N=C(c2ccc(S(C)(=O)=O)c(S(C)(=O)=O)c2)C(C)(NO)C1=O` (stereo not drawn) [Compound 104, 3-(3,4-Dimethanesulfonylphenyl)-4-(hydroxyamino)-1,4-dimethyl-4,5-dihydro-1H-pyrazol-5-one], the results for the half-life at 5 μM in data set [1], in data set [2] and in data set [3] were 28 min, 33 min and 59 min, respectively.

Turning to `CC1=NN(C)C(=O)C1(NO)/C(C)=N/OCC(C)C` (stereo not drawn) [Compound 105, 4-(Hydroxyamino)-1,3-dimethyl-4-[1-[(2-methylpropoxy)imino]ethyl]-4,5-dihydro-1H-pyrazol-5-one], the half-life at 5 μM worked out at 6 min in data set [1], 4 min in data set [2] and 4 min in data set [3].

In the case of `CCO/N=C(\C)C1(NO)C(=O)N(C)N=C1C` (stereo not drawn) [Compound 106, 4-[1-(Ethoxyimino)ethyl]-4-(hydroxyamino)-1,3-dimethyl-4,5-dihydro-1H-pyrazol-5-one], the half-life at 5 μM in data set [1] turned out to be 6 min; in data set [2] it was 8 min; in data set [3] it was 7 min.

`CO/N=C(\C)C1(NO)C(=O)N(C)N=C1c1ccc(OC)cc1` (stereo not drawn) [Compound 107, 4-(Hydroxyamino)-4-[1-(methoxyimino)ethyl]-3-(4-methoxyphenyl)-1-methyl-4,5-dihydro-1H-pyrazol-5-one]: the half-life at 5 μM worked out at 18 min in data set [1], 10 min in data set [2] and 49 min in data set [3].

Turning to `CN1N=C(c2ccc(Br)cc2)C(C)(NO)C1=O` (stereo not drawn) [Compound 108, 3-(4-Bromophenyl)-4-(hydroxyamino)-1,4-dimethyl-4,5-dihydro-1H-pyrazol-5-one], the half-life at 5 μM in data set [1] was 61 min; in data set [2] it was 136 min; in data set [3], 89 min.

In the case of `CN1N=C(c2ccccc2)C(NO)(c2ccccc2)C1=O` (stereo not drawn) [Compound 109, 4-(Hydroxyamino)-1-methyl-3,4-diphenyl-4,5-dihydro-1H-pyrazol-5-one], the half-life at 5 μM in data set [1] was 10 min; in data set [2], 11 min; in data set [3] it was 8 min.

As to `CCOC1=NN(c2ccccc2)C(=O)C1(NO)/C(C)=N/OC` (stereo not drawn) [Compound 110, 3-Ethoxy-4-(hydroxyamino)-4-[1-(methoxyimino)ethyl]-1-phenyl-4,5-dihydro-1H-pyrazol-5-one], the half-life at 5 μM in data set [1] amounted to 11 min; in data set [2], 12 min; in data set [3], 62 min.

With `CCOC1=NN(c2ccc(Br)cc2)C(=O)C1(NO)/C(C)=N/OC` (stereo not drawn) [Compound 111, 1-(4-Bromophenyl)-3-ethoxy-4-(hydroxyamino)-4-[1-(methoxyimino)ethyl]-4,5-dihydro-1H-pyrazol-5-one], the half-life at 5 μM in data set [1] came out at 29 min; in data set [2] it was 24 min; in data set [3], 23 min.

`CN1N=C(c2ccc(S(=O)(=O)N3CCC(F)(F)CC3)cc2)C(C)(NO)C1=O` (stereo not drawn) [Compound 114, 3-{4-[(4,4-Difluoropiperidin-1-yl)sulfonyl]phenyl}-4-(hydroxyamino)-1,4-dimethyl-4,5-dihydro-1H-pyrazol-5-one]: the half-life at 5 μM in data set [1] was 25 min; in data set [2], 42 min; in data set [3], 49 min.

Take `C/C(=N\OCc1ccccc1)C1(NO)C(=O)N(C)N=C1C(C)(C)C` (stereo not drawn) [Compound 115, 4-[1-[(Benzyloxy)imino]ethyl]-3-tert-butyl-4-(hydroxyamino)-1-methyl-4,5-dihydro-1H-pyrazol-5-one]: the results for the half-life at 5 μM in data set [1], in data set [2] and in data set [3] were 14 min, 27 min and 32 min, respectively.

Turning to `CO/N=C(\C)C1(NO)C(=O)N(c2ccccc2)N=C1OC` (stereo not drawn) [Compound 116, 4-(Hydroxyamino)-3-methoxy-4-[1-(methoxyimino)ethyl]-1-phenyl-4,5-dihydro-1H-pyrazol-5-one], the values for the half-life at 5 μM in data set [1], in data set [2] and in data set [3] were 9 min, 18 min and 48 min, respectively.

As for `C/C(=N\OC(C)(C)C)C1(NO)C(=O)N(C)N=C1C(C)(C)C` (stereo not drawn) [Compound 117, 4-[1-[(tert-Butoxy)imino]ethyl]-3-tert-butyl-4-(hydroxyamino)-1-methyl-4,5-dihydro-1H-pyrazol-5-one], the half-life at 5 μM was 16 min in data set [1], 34 min in data set [2] and 36 min in data set [3].

In the case of `C/C(=N\Oc1ccc(Br)cc1)C1(NO)C(=O)N(C)N=C1C(C)(C)C` (stereo not drawn) [Compound 118, 4-[1-[(4-Bromophenoxy)imino]ethyl]-3-tert-butyl-4-(hydroxyamino)-1-methyl-4,5-dihydro-1H-pyrazol-5-one], the half-life at 5 μM in data set [1] came out at 5 min; in data set [2] it was 24 min; in data set [3], 22 min.

`C/C(=N\Oc1ccccc1)C1(NO)C(=O)N(C)N=C1C(C)(C)C` (stereo not drawn) [Compound 119, 3-tert-Butyl-4-(hydroxyamino)-1-methyl-4-[1-(phenoxyimino)ethyl]-4,5-dihydro-1H-pyrazol-5-one]: the half-life at 5 μM in data set [1] was found to be 12 min; in data set [2], 118 min; in data set [3], 91 min.

`CC(C)S(=N)(=O)c1ccc(C2=NN(C)C(=O)C2(C)NO)cc1` (stereo not drawn) [Compound 120, 4-(Hydroxyamino)-3-{4-[imino(oxo)propan-2-yl-λ^6-sulfanyl]phenyl}-1,4-dimethyl-4,5-dihydro-1H-pyrazol-5-one]: the half-life at 5 μM in data set [1] came to 32 min; in data set [2], 31 min; in data set [3], 56 min.

Regarding `CO/N=C(\C)C1(NO)C(=O)N(C)N=C1c1ccc(S(=O)(=O)N(C)C)cc1` (stereo not drawn) [Compound 121, 4-[4-(Hydroxyamino)-4-[1-(methoxyimino)ethyl]-1-methyl-5-oxo-4,5-dihydro-1H-pyrazol-3-yl]-N,N-dimethylbenzene-1-sulfonamide], the half-life at 5 μM stood at 2 min in data set [1], 4 min in data set [2] and 8 min in data set [3].

`CN1N=C(C(C)(C)C)C(NO)(c2ccc(S(=O)(=O)N(C)C)cc2)C1=O` (stereo not drawn) [Compound 122, 4-[3-tert-Butyl-4-(hydroxyamino)-1-methyl-5-oxo-4,5-dihydro-1H-pyrazol-4-yl]-N,N-dimethylbenzene-1-sulfonamide]: the results for the half-life at 5 μM in data set [1], in data set [2] and in data set [3] were 31 min, 35 min and 34 min, respectively.

Consider `CO/N=C(\C)C1(NO)C(=O)N(C)N=C1c1ccc(C(=O)N(C)C)cc1` (stereo not drawn) [Compound 123, 4-[4-(Hydroxyamino)-4-[1-(methoxyimino)ethyl]-1-methyl-5-oxo-4,5-dihydro-1H-pyrazol-3-yl]-N,N-dimethylbenzamide], for which the half-life at 5 μM in data set [1] was found to be 6 min; in data set [2], 6 min; in data set [3] it was 11 min.

The values above are taken from patent US9682938B2, “Pyrazolone derivatives as nitroxyl donors” (Cardioxyl Pharmaceuticals, Inc., priority 2014, dated 2017).
